# Laboratory results: patent publication US20260027116A1, “Methods of Treating Chronic Graft-Versus-Host Disease Following Allogeneic Hematopoietic Stem Cell Transplantation” (Kadmon Corporation, LLC, priority 2022, published 2026)
# “Also recorded” adds a separate entry of the source. Like-named read-outs stand apart in the source and are kept apart here.
# System: patients with cGVHD
compound,measurement,setting,value
"CC(C)NC(=O)COc1cccc(-c2nc(Nc3ccc4[nH]ncc4c3)c3ccccc3n2)c1 [Belumosudil, 2-{3-[4-(1H-indazol-5-ylamino)-2-quinazolinyl]phenoxy}-N-(propan-2-yl) acetamide]",Pleural effusion: Affected/At Risk (%),Cohort 3 400 mg QD,1/21 (4.76%)
same,Pneumonia respiratory syncytial viral: # Events,Cohort 3 400 mg QD,0
same,Pneumonia respiratory syncytial viral: Affected/At Risk (%),Cohort 3 400 mg QD,0/21 (0%)
same,Pneumonia: # Events,Cohort 3 400 mg QD,0
same,Pneumonia: Affected/At Risk (%),Cohort 3 400 mg QD,0/21 (0%)
same,Pollakiuria: # Events,Cohort 3 400 mg QD,0
same,Pollakiuria: Affected/At Risk (%),Cohort 3 400 mg QD,0/21 (0%)
same,Presyncope: # Events,Cohort 3 400 mg QD,0
same,Presyncope: Affected/At Risk (%),Cohort 3 400 mg QD,0/21 (0%)
same,Productive cough: # Events,Cohort 3 400 mg QD,2
same,Productive cough: Affected/At Risk (%),Cohort 3 400 mg QD,1/21 (4.76%)
same,Proteinuria: # Events,Cohort 3 400 mg QD,0
same,Proteinuria: Affected/At Risk (%),Cohort 3 400 mg QD,0/21 (0%)
same,Pruritus: # Events,Cohort 3 400 mg QD,0
same,Pruritus: Affected/At Risk (%),Cohort 3 400 mg QD,0/21 (0%)
same,Pseudomonas infection: # Events,Cohort 3 400 mg QD,0
same,Pseudomonas infection: Affected/At Risk (%),Cohort 3 400 mg QD,0/21 (0%)
same,Pulmonary mass: # Events,Cohort 3 400 mg QD,1
same,Pulmonary mass: Affected/At Risk (%),Cohort 3 400 mg QD,1/21 (4.76%)
same,Pyrexia: # Events,Cohort 3 400 mg QD,3
same,Pyrexia: Affected/At Risk (%),Cohort 3 400 mg QD,3/21 (14.29%)
same,Rash erythematous: # Events,Cohort 3 400 mg QD,0
same,Rash erythematous: Affected/At Risk (%),Cohort 3 400 mg QD,0/21 (0%)
same,Rash maculo-papular: # Events,Cohort 3 400 mg QD,0
same,Rash maculo-papular: Affected/At Risk (%),Cohort 3 400 mg QD,0/21 (0%)
same,Rash pustular: # Events,Cohort 3 400 mg QD,0
same,Rash pustular: Affected/At Risk (%),Cohort 3 400 mg QD,0/21 (0%)
same,Rash: # Events,Cohort 3 400 mg QD,1
same,Rash: Affected/At Risk (%),Cohort 3 400 mg QD,1/21 (4.76%)
same,Red blood cells urine positive: # Events,Cohort 3 400 mg QD,0
same,Red blood cells urine positive: Affected/At Risk (%),Cohort 3 400 mg QD,0/21 (0%)
same,Renal failure: # Events,Cohort 3 400 mg QD,0
same,Renal failure: Affected/At Risk (%),Cohort 3 400 mg QD,0/21 (0%)
same,Respiratory syncytial virus infection: # Events,Cohort 3 400 mg QD,3
same,Respiratory syncytial virus infection: Affected/At Risk (%),Cohort 3 400 mg QD,2/21 (9.52%)
same,Respiratory tract infection fungal: # Events,Cohort 3 400 mg QD,0
same,Respiratory tract infection fungal: Affected/At Risk (%),Cohort 3 400 mg QD,0/21 (0%)
same,Respiratory tract infection: # Events,Cohort 3 400 mg QD,0
same,Respiratory tract infection: Affected/At Risk (%),Cohort 3 400 mg QD,0/21 (0%)
same,Restless legs syndrome: # Events,Cohort 3 400 mg QD,0
same,Restless legs syndrome: Affected/At Risk (%),Cohort 3 400 mg QD,0/21 (0%)
same,Rosacea: # Events,Cohort 3 400 mg QD,0
same,Rosacea: Affected/At Risk (%),Cohort 3 400 mg QD,0/21 (0%)
same,"SAE, No. (%)",Cohort 3 400 mg QD,12 (57)
same,Sinus pain: # Events,Cohort 3 400 mg QD,0
same,Sinus pain: Affected/At Risk (%),Cohort 3 400 mg QD,0/21 (0%)
same,Sinusitis: # Events,Cohort 3 400 mg QD,1
same,Sinusitis: Affected/At Risk (%),Cohort 3 400 mg QD,1/21 (4.76%)
same,Skin abrasion: # Events,Cohort 3 400 mg QD,2
same,Skin abrasion: Affected/At Risk (%),Cohort 3 400 mg QD,2/21 (9.52%)
same,Skin lesion: # Events,Cohort 3 400 mg QD,0
same,Skin lesion: Affected/At Risk (%),Cohort 3 400 mg QD,0/21 (0%)
same,Skin papilloma: # Events,Cohort 3 400 mg QD,0
same,Skin papilloma: Affected/At Risk (%),Cohort 3 400 mg QD,0/21 (0%)
same,Spinal compression fracture: # Events,Cohort 3 400 mg QD,0
same,Spinal compression fracture: Affected/At Risk (%),Cohort 3 400 mg QD,0/21 (0%)
same,Squamous cell carcinoma of skin: # Events,Cohort 3 400 mg QD,0
same,Squamous cell carcinoma of skin: Affected/At Risk (%),Cohort 3 400 mg QD,0/21 (0%)
same,Stomatitis: # Events,Cohort 3 400 mg QD,1
same,Stomatitis: Affected/At Risk (%),Cohort 3 400 mg QD,1/21 (4.76%)
same,Superior vena cava syndrome: # Events,Cohort 3 400 mg QD,0
same,Superior vena cava syndrome: Affected/At Risk (%),Cohort 3 400 mg QD,1/21 (4.76%)
same,"TEAE, participants (%)",Cohort 3 400 mg QD,20 (95%) participants
same,"TESAE, participants (%)",Cohort 3 400 mg QD,13 (62%) participants
same,Tachycardia: # Events,Cohort 3 400 mg QD,2
same,Tachycardia: Affected/At Risk (%),Cohort 3 400 mg QD,2/21 (9.52%)
same,Tendonitis: # Events,Cohort 3 400 mg QD,0
same,Tendonitis: Affected/At Risk (%),Cohort 3 400 mg QD,0/21 (0%)
same,Testicular pain: # Events,Cohort 3 400 mg QD,0
same,Testicular pain: Affected/At Risk (%),Cohort 3 400 mg QD,0/21 (0%)
same,Testicular swelling: # Events,Cohort 3 400 mg QD,0
same,Testicular swelling: Affected/At Risk (%),Cohort 3 400 mg QD,0/21 (0%)
same,Thoracic spinal stenosis: # Events,Cohort 3 400 mg QD,0
same,Thoracic spinal stenosis: Affected/At Risk (%),Cohort 3 400 mg QD,0/21 (0%)
same,Thrombocytopenia: # Events,Cohort 3 400 mg QD,1
same,Thrombocytopenia: Affected/At Risk (%),Cohort 3 400 mg QD,1/21 (4.76%)
same,Thrombocytosis: # Events,Cohort 3 400 mg QD,0
same,Thrombocytosis: Affected/At Risk (%),Cohort 3 400 mg QD,0/21 (0%)
same,Tinea pedis: # Events,Cohort 3 400 mg QD,0
same,Tinea pedis: Affected/At Risk (%),Cohort 3 400 mg QD,0/21 (0%)
same,Tooth fracture: # Events,Cohort 3 400 mg QD,0
same,Tooth fracture: Affected/At Risk (%),Cohort 3 400 mg QD,0/21 (0%)
same,Total other adverse events: Affected/At Risk (%),Cohort 3 400 mg QD,19/21 (90.48%)
same,Transfusion reaction: # Events,Cohort 3 400 mg QD,0
same,Transfusion reaction: Affected/At Risk (%),Cohort 3 400 mg QD,0/21 (0%)
same,Tremor: # Events,Cohort 3 400 mg QD,4
same,Tremor: Affected/At Risk (%),Cohort 3 400 mg QD,3/21 (14.29%)
same,Type 2 diabetes mellitus: # Events,Cohort 3 400 mg QD,0
same,Type 2 diabetes mellitus: Affected/At Risk (%),Cohort 3 400 mg QD,0/21 (0%)
same,Ulcerative keratitis: # Events,Cohort 3 400 mg QD,0
same,Ulcerative keratitis: Affected/At Risk (%),Cohort 3 400 mg QD,0/21 (0%)
same,Upper respiratory tract infection: # Events,Cohort 3 400 mg QD,9
same,Upper respiratory tract infection: Affected/At Risk (%),Cohort 3 400 mg QD,7/21 (33.33%)
same,Upper-airway cough syndrome: # Events,Cohort 3 400 mg QD,1
same,Upper-airway cough syndrome: Affected/At Risk (%),Cohort 3 400 mg QD,1/21 (4.76%)
same,Urinary retention: # Events,Cohort 3 400 mg QD,0
same,Urinary retention: Affected/At Risk (%),Cohort 3 400 mg QD,0/21 (0%)
same,Urinary tract infection: # Events,Cohort 3 400 mg QD,0
same,Urinary tract infection: Affected/At Risk (%),Cohort 3 400 mg QD,0/21 (0%)
same,Urinary tract pain: # Events,Cohort 3 400 mg QD,1
same,Urinary tract pain: Affected/At Risk (%),Cohort 3 400 mg QD,1/21 (4.76%)
same,Urine output decreased: # Events,Cohort 3 400 mg QD,0
same,Urine output decreased: Affected/At Risk (%),Cohort 3 400 mg QD,0/21 (0%)
same,Vascular access complication: # Events,Cohort 3 400 mg QD,0
same,Vascular access complication: Affected/At Risk (%),Cohort 3 400 mg QD,0/21 (0%)
same,Vertigo: # Events,Cohort 3 400 mg QD,0
same,Vertigo: Affected/At Risk (%),Cohort 3 400 mg QD,0/21 (0%)
same,Vision blurred: # Events,Cohort 3 400 mg QD,4
same,Vision blurred: Affected/At Risk (%),Cohort 3 400 mg QD,4/21 (19.05%)
same,Vomiting: # Events,Cohort 3 400 mg QD,4
same,Vomiting: Affected/At Risk (%),Cohort 3 400 mg QD,4/21 (19.05%)
same,Weight decreased: # Events,Cohort 3 400 mg QD,4
same,Weight decreased: Affected/At Risk (%),Cohort 3 400 mg QD,2/21 (9.52%)
same,Weight increased: # Events,Cohort 3 400 mg QD,4
same,Weight increased: Affected/At Risk (%),Cohort 3 400 mg QD,1/21 (4.76%)
same,White blood cell count decreased: # Events,Cohort 3 400 mg QD,2
same,White blood cell count decreased: Affected/At Risk (%),Cohort 3 400 mg QD,1/21 (4.76%)
same,cytomegalovirus (CMV) infection or reactivation,Example 1,No cases; also recorded: no reported CMV infection or reactivation
same,deaths attributed to belumosudil,Example 1,none of the deaths attributed to belumosudil
same,dose response with respect to observed AEs,Example 1,no dose response
same,median duration of dose interruption,Example 1,10 days
same,median duration of dose reduction,Example 1,97 days
same,patients who discontinued because of potentially drug-related AEs,Example 1,Three
same,patients with dose interruptions,Example 1,41%
same,patients with dose reductions,Example 1,9%
same,tolerability,Example 1,well-tolerated
same,grade ≥3 cytopenias,"Example 1, N=54",4%
same,grade ≥3 dyspnea,"Example 1, N=54",13%
same,grade ≥3 hyperglycemia,"Example 1, N=54",7%
same,grade ≥3 hypoxia,"Example 1, N=54",7%
same,grade ≥3 increased liver function tests,"Example 1, N=54",7%
same,patients with a grade ≥3 AE,"Example 1, N=54",Sixty-one
same,patients with cough,"Example 1, N=54",22%
same,patients with diarrhea,"Example 1, N=54",33%
same,patients with dyspnea,"Example 1, N=54",30%
same,patients with fatigue,"Example 1, N=54",33%
same,patients with headache,"Example 1, N=54",24%
same,patients with hypertension,"Example 1, N=54",20%
same,patients with increased liver function tests,"Example 1, N=54",33%
same,patients with nausea,"Example 1, N=54",33%
same,patients with peripheral edema,"Example 1, N=54",24%
same,patients with serious AEs,"Example 1, N=54",43%
same,patients with upper respiratory infection,"Example 1, N=54",46%
same,serious AE dyspnea,"Example 1, N=54",7%
same,serious AE hypoxia,"Example 1, N=54",4%
same,serious AE influenza-like illness,"Example 1, N=54",4%
same,serious AE lung infection,"Example 1, N=54",6%
same,patients who died during the study,"Example 1, all in cohort 3",Four
same,"All grade ALT/AST increased, No. (%)","Total, N=54",18 (33)
same,"All grade Cough, No. (%)","Total, N=54",12 (22)
same,"All grade Diarrhea, No. (%)","Total, N=54",18 (33)
same,"All grade Dyspnea, No. (%)","Total, N=54",16 (30)
same,"All grade Fatigue, No. (%)","Total, N=54",18 (33)
same,"All grade Headache, No. (%)","Total, N=54",13 (24)
same,"All grade Hypertension, No. (%)","Total, N=54",11 (20)
same,"All grade Nausea, No. (%)","Total, N=54",18 (33)
same,"All grade Peripheral edema, No. (%)","Total, N=54",13 (24)
same,"All grade URI, No. (%)","Total, N=54",25 (46)
same,"Any AE, No. (%)","Total, N=54",53 (98)
same,"Death, No. (%)","Total, N=54",2 (4)
same,"Drug-related AE, No. (%)","Total, N=54",30 (56)
same,"Drug-related SAE, No. (%)","Total, N=54",0
same,"Grade ≥3 AE, No. (%)","Total, N=54",33 (61)
same,"Grade ≥3 ALT/AST increased, No. (%)","Total, N=54",4 (7)
same,"Grade ≥3 Anemia, No. (%)","Total, N=54",3 (6)
same,"Grade ≥3 Dyspnea, No. (%)","Total, N=54",7 (13)
same,"Grade ≥3 Hyperglycemia, No. (%)","Total, N=54",4 (7)
same,"Grade ≥3 Hypoxia, No. (%)","Total, N=54",4 (7)
same,"Grade ≥3 Lung infection or pneumonia, No. (%)","Total, N=54",5 (9)
same,"SAE, No. (%)","Total, N=54",23 (43)
